Format in all cases: cell-based
The test system of one test is human progenitor cells. Nature of the test: DNA synthesis (3H-Thymidine incorporation) in micromass cultures. Particulars: FIG. 5. The procedure: FIG. 5. A bar graph of the concentration dependent effects of Pentosan Polysulfate (PPS) on DNA synthesis by human progenitor cells, as determined by the incorporation of ^3H-Thymidine into macromolecular DNA, after 4 day micromass cultures. *=p<0.05; **=p<0.005 relative to controls.
Ten μl of progenitor cells (7×10^6 cells/ml) were seeded into each well of a 24-well culture plate. After incubation at 37° C. in moist 5% CO2/95% air for 2-3 hours, 900 μl of DMEM-High medium (+10% FBS) and indicated concentrations PPS dissolved in DMEM-High medium were added slowly to the wells. The final PPS concentration were 0, 0.1, 0.5, 1.0, 2.5, 5.0, 10.0, 20.0 μg/ml, respectively. Every PPS concentration was established in triplicate. The cultures were allowed to proceed for 3 days. On day 4, to each well of the 24-well plate was added 640 μl of DMEM-High (+10% FBS), 80 μl of 10×PPS solution and 80 μl of 10 μCi/ml ^3H-Thymidine solution to produce a final ^3H-Thymidine concentration of […] and final PPS concentrations as indicated. The cultures were then incubated in 37° C., 5% CO2 for a further 22 hours, the medium was removed and 200 μl of 1 mg/ml Collagenase solution [Collagenase buffer: 66.7 mM NaCl, 6.7 mM KCl, 4.8 mM CaCl2.2H2O, 10 mM HEPES (pH7.4)] was added to each well. […] The radioactivity of ^3H incorporated into the DNA of proliferating cells was measured by scintillation counting.
Background: Incorporation of labelled thymidine or its analogues reports DNA synthesis.

Test [1] relates to Murine MSC line C3H10T1/2. As to the kind of experiment: Proteoglycan biosynthesis (35S-GAG) in 7 day pellet cultures. Particulars: 10 micrograms/mL; 7 day pellet culture; FIG. 15. The text has this: FIG. 15. Bar graphs showing the concentration dependent effects of Pentosan Polysulfate (PPS), on the biosynthesis of Proteoglycans (PGs) as determined by the incorporation of radioactively labelled sulfate into the sulfated glycosaminoglycans (^35S-GAG) of PGs in 7 day pellet cultures of a murine progenitor cells (C3H10T1-2).
Murine Progenitor cells (cell lines C3H10T1/2 or ATDC5) purchased from RIKEN Cell Bank (Tsukuba, Japan) or human immunoselected Stro-1+ Progenitor cells (Mesoblast Ltd, Melbourne, Australia) were seeded in 2 ml screw-capped sterile centrifuge tubes and the total volume made-up to 1 ml with DMEM-High glucose medium containing 10% FBS. Progenitor cells were then centrifuged at 500 g for 10 min in a swing-out rotor at room temperature. The screw caps were loosened and the tubes placed in an incubator at 37° C., in a 5% CO2/95% air moist atmosphere. The pellets generally formed within 24 hours. Medium was changed daily in the first two days, then once every 2-3 days thereafter. […] Biosynthesis of ^35S-GAGs was determined as described for the monolayer cultures and the results expressed as ^35-S-GAGs/μg DNA.

The test system of the next test is human progenitor cell. Nature of the test: Viability after cryopreservation and thawing, MTT assay. The following applies: FIG. 3. The procedure:
FIG. 3. Effects of different concentrations of Pentosan Polysulfate (PPS) on progenitor cell viability following cryopreservation in liquid nitrogen and rapidly thawing as described in FIG. 1. Cell viability was determined using the mitochondrial dehydrogenase MTT assay. Data shown=Means±SD *=p<0.05 relative to control values
Murine Progenitor cells (cell lines C3H10T1/2 or ATDC5) purchased from RIKEN Cell Bank (Tsukuba, Japan) or human immunoselected Stro-1+ progenitor cells (Mesoblast Ltd, Melbourne, Australia) were seeded at a various cell densities over the range of 1.68×10^5-1.0×10^6 cells into 2 mL screw-capped centrifuge tubes containing in DMEM+10% FBS. In separate tubes a stock solution containing 2× the required concentrations of PPS dissolved in DMEM+20% FBS and 15% DMSO were prepared. These stock solutions were added to the cell cultures such that the final concentration of PPS was half that of the stock concentration and of FBS was 10% and DMSO was […]. Over several independent experiments the final concentrations of PPS in the final solutions ranged from 0.0-100 ug/ml (see figures for details). All concentrations of PPS used were examined in triplicated. Cells and the cryopreservation solutions containing the PPS were mixed gently for 5 mins and stored in liquid nitrogen. […] 90 ul×3 from each tube were transferred to a 96-well plate and the absorbance at 540 nm determined. […]

With pentosan polysulfate [PPS], the “cell division (3H-Thymidine incorporation into DNA)” value with human progenitor cells (1-5 micrograms/mL) was “Marked stimulation of cell division”. In the test on human progenitor cells (all PPS concentrations (0.1-20 μg/ml)), the “proliferation (3H-Thymidine incorporation into DNA)” value was “increased proliferation”. Moreover, the “increase of proteoglycan synthesis, of the control values” in test [1] was “more than 80%”. The “cell viability after cryopreservation and thawing (MTT)” value with human progenitor cell (168,000 cells, particularly at 1 and 2.5 μg/ml PPS) is given as “improved the viability of the cells”; with human progenitor cell (350,000 cells) it was “not adversely affected”.

Values taken from patent US9888679B2, “Protection of progenitor cells and regulation of their differentiation” (Proteobioactives Pty Ltd, priority 2007, dated 2018).
